Experimental data reported in ChEMBL document CHEMBL4265900, “Discovery of the bifunctional modulator of angiotensin II type 1 receptor (AT1R) and PPARγ derived from the AT1R antagonist, Fimasartan” (Bioorg Med Chem Lett, 2018).
Blank lines part the entries; values can stand above or below the compound they belong to. The source made the active and inactive calls. The rule behind the calls is not given here.

Assays:
[1] = Stability in dog liver microsomes assessed as compound remaining after 30 mins; format: ADME, Canis lupus familiaris, microsome; conditions: read-out: Stability
[2] = Cmax in rat at 60 mg/kg, po; format: ADME, organism-based; set-up: dose 60 mg/kg, route oral; conditions: in vivo
[3] = Cmax in mouse at 60 mg/kg, po; format: ADME, organism-based; set-up: dose 60 mg/kg, route oral; conditions: in vivo
Rattus norvegicus [4] = assay: Antihypertensive activity in angiotensin 2 induced hypertension rat model assessed as time required for 50% reduction in blood pressure at 30 mg/kg, po; format: functional
Rattus norvegicus [5] = assay: Antihypertensive activity in angiotensin 2 induced hypertension rat model at 30 mg/kg, po measured after 24 hrs relative to fimasartan; format: functional
[6] = Ratio of AUClast in rat at 60 mg/kg, po to AUClast in mouse at 60 mg/kg, po; format: ADME, organism-based; conditions: in vivo
[7] = Tmax in mouse at 60 mg/kg, po; format: ADME, organism-based; conditions: in vivo
Mus musculus [8] = assay: Antidiabetic activity in db/db mouse model assessed as suppression of blood glucose increase at 60 mg/kg qd, po administered for 13 days; format: functional, organism-based
[9] = Half life in rat at 60 mg/kg, po; format: ADME, organism-based; conditions: in vivo
[10] = Stability in rat liver microsomes assessed as compound remaining after 30 mins; format: ADME, microsome; conditions: read-out: Stability
[11] = AUClast in rat at 60 mg/kg, po; format: ADME, organism-based; set-up: dose 60 mg/kg, time 0 - last, route oral; conditions: in vivo
[12] = molecular target: T1, Peroxisome proliferator-activated receptor gamma (Homo sapiens) (UniProt P37231); assay: Agonist activity at PPARgamma (unknown origin) at 1 uM relative to pioglitazone
T1 sequence (whole entry): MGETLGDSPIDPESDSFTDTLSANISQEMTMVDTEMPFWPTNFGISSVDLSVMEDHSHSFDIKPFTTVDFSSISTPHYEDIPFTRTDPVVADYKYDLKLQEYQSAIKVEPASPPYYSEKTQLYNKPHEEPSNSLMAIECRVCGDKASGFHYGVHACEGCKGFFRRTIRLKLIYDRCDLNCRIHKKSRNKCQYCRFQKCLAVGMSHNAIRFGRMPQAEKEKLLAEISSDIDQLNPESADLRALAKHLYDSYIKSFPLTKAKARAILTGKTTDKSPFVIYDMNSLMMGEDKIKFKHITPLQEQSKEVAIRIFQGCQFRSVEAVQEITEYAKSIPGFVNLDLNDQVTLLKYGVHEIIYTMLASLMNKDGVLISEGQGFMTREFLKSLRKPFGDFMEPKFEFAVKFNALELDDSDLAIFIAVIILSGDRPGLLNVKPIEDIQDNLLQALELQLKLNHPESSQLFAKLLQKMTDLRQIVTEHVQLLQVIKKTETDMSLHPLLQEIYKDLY

CYP2C19 = CYP2C19 (Homo sapiens, UniProt P33261); assay: Inhibition of CYP2C19 (unknown origin) assessed as remaining activity at 10 uM; format: ADME; conditions: read-out: Activity
Sequence of CYP2C19 (P33261 whole entry): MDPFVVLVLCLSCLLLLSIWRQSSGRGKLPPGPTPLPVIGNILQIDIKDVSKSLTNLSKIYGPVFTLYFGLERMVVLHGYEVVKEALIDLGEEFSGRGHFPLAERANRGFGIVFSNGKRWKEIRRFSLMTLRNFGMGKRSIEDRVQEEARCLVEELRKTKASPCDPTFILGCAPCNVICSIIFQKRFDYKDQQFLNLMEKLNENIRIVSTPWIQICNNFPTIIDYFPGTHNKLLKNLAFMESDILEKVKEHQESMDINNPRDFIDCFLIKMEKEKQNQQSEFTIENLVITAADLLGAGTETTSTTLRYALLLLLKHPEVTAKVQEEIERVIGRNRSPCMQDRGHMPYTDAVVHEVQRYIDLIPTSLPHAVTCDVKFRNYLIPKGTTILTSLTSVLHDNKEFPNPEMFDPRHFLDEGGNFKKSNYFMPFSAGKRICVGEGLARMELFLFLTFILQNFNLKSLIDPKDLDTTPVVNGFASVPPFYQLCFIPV

[13] = molecular target: Voltage-gated inwardly rectifying potassium channel KCNH2 (Homo sapiens, UniProt Q12809); assay: Inhibition of human ERG
Sequence of Voltage-gated inwardly rectifying potassium channel KCNH2 (Q12809 whole entry): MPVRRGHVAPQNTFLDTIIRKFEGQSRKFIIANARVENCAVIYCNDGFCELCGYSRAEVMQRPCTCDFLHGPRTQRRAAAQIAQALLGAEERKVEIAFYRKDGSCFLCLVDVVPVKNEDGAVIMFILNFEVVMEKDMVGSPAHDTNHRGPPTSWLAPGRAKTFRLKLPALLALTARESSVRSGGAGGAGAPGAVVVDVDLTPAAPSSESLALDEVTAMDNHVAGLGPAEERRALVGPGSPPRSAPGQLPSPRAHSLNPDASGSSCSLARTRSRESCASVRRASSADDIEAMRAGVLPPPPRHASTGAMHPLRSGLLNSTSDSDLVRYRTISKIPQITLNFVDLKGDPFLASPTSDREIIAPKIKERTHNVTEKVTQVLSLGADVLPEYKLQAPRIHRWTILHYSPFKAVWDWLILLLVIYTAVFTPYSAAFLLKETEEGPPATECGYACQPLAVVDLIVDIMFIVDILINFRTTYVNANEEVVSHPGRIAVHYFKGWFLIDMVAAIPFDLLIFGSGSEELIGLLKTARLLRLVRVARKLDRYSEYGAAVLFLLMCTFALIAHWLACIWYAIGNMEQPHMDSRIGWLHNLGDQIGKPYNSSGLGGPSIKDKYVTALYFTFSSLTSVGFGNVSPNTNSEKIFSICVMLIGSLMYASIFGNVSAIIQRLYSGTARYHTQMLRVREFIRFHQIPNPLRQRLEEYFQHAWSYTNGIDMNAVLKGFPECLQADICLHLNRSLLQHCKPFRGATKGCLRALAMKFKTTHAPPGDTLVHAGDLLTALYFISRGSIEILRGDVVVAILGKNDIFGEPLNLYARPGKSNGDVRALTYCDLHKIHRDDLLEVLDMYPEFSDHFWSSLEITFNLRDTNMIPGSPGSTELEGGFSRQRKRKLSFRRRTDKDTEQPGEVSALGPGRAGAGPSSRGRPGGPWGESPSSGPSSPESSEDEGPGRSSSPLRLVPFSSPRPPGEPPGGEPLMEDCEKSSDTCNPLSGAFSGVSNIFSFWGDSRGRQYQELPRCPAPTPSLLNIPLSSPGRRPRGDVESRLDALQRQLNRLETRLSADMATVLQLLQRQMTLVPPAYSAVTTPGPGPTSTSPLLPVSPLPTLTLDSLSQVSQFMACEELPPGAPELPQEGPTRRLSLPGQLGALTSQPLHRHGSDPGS

CYP2C9 = CYP2C9 (Homo sapiens, UniProt P11712); assay: Inhibition of CYP2C9 (unknown origin) assessed as remaining activity at 10 uM; format: ADME; conditions: read-out: Activity
Sequence of CYP2C9 (P11712 whole entry): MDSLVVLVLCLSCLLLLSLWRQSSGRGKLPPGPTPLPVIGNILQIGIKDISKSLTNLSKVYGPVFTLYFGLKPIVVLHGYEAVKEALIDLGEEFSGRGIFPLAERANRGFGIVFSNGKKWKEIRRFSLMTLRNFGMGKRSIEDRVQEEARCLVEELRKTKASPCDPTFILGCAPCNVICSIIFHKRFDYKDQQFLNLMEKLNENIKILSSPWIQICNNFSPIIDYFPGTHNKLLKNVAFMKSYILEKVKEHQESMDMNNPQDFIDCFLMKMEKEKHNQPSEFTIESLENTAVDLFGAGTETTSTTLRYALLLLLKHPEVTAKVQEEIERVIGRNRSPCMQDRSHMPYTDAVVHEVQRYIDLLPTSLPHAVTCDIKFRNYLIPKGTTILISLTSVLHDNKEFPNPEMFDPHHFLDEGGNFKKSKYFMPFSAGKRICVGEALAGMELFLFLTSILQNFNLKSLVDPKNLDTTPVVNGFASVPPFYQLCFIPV

CYP3A4 = CYP3A4 (Homo sapiens, UniProt P08684); assay: Inhibition of CYP3A4 (unknown origin) assessed as remaining activity at 10 uM; format: ADME; conditions: read-out: Activity
Sequence of CYP3A4 (P08684 whole entry): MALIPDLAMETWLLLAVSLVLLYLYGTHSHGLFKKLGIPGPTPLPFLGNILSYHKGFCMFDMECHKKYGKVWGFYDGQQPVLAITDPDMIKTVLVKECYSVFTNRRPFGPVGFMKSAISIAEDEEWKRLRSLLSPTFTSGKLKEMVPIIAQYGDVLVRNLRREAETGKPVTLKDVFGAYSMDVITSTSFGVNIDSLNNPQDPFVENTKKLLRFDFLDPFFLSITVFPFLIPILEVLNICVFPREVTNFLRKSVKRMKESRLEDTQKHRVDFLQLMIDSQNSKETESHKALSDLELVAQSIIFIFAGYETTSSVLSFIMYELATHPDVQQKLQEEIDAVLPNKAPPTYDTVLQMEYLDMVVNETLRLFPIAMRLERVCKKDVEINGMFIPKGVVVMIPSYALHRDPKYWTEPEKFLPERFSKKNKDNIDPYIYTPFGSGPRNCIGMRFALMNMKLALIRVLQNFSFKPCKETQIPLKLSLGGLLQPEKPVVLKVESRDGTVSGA

Mus musculus [14] = assay: Toxicity in db/db mouse model assessed as suppression of weight gain at 60 mg/kg, po qd measured after 11 days; format: organism-based; conditions: in vivo, 264 h
[15] = Stability in human liver microsomes assessed as compound remaining after 30 mins; format: ADME, microsome; conditions: read-out: Stability
[16] = molecular target: T2, Type-1 angiotensin II receptor (Homo sapiens, UniProt P30556); assay: Antagonist activity at type-1 angiotensin 2 receptor (unknown origin) by beta-arrestin recruitment assay; format: functional
T2 sequence (P30556 whole entry): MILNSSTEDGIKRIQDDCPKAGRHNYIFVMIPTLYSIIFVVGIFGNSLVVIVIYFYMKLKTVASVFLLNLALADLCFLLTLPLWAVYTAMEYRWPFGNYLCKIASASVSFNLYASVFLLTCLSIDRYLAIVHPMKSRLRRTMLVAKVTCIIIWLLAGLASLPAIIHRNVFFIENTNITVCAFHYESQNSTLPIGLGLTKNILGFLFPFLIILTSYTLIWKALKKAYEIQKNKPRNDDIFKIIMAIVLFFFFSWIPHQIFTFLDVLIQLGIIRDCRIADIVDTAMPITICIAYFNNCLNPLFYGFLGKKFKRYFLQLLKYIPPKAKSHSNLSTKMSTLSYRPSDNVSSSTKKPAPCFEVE

CYP2D6 = CYP2D6 (Homo sapiens, UniProt P10635); assay: Inhibition of CYP2D6 (unknown origin) assessed as remaining activity at 10 uM; format: ADME; conditions: read-out: Activity
Sequence of CYP2D6 (P10635 whole entry): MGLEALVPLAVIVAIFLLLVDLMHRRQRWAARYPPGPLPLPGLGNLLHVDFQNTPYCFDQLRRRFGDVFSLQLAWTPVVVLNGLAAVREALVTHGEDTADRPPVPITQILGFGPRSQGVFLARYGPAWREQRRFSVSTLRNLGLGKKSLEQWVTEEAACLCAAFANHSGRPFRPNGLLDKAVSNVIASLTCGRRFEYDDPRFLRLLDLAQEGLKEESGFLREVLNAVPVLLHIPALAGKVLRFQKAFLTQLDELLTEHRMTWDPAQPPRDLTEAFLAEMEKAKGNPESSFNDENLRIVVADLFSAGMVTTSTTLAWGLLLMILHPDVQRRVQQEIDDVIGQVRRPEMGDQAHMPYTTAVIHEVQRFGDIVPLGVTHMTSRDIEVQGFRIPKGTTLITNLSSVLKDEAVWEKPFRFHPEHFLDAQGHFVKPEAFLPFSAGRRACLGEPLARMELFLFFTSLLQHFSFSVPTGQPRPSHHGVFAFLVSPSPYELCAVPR

[17] = molecular target: T3, Peroxisome proliferator-activated receptor gamma (Homo sapiens, UniProt P37231); assay: Agonist activity at PPARgamma (unknown origin)
T3 sequence (P37231 whole entry): T1 sequence (whole entry)

[18] = Tmax in rat at 60 mg/kg, po; format: ADME, organism-based; conditions: in vivo
[19] = AUClast in mouse at 60 mg/kg, po; format: ADME, organism-based; set-up: dose 60 mg/kg, time 0 - last, route oral; conditions: in vivo
[20] = molecular target: T2, Type-1 angiotensin II receptor; assay: Antagonist activity at type-1 angiotensin 2 receptor (unknown origin) by calcium mobilizing assay; format: functional
[21] = Stability in mouse liver microsomes assessed as compound remaining after 30 mins; format: ADME, microsome; conditions: read-out: Stability
Rattus norvegicus [22] = assay: Antihypertensive activity in angiotensin 2 induced hypertension rat model at 30 mg/kg, po measured until 8 hrs post dose; format: functional, organism-based
CYP1A2 = molecular target: T4, CYP1A2 (Homo sapiens, UniProt P05177); assay: Inhibition of CYP1A2 (unknown origin) assessed as remaining activity at 10 uM; format: ADME; conditions: read-out: Activity
T4 sequence (P05177 whole entry): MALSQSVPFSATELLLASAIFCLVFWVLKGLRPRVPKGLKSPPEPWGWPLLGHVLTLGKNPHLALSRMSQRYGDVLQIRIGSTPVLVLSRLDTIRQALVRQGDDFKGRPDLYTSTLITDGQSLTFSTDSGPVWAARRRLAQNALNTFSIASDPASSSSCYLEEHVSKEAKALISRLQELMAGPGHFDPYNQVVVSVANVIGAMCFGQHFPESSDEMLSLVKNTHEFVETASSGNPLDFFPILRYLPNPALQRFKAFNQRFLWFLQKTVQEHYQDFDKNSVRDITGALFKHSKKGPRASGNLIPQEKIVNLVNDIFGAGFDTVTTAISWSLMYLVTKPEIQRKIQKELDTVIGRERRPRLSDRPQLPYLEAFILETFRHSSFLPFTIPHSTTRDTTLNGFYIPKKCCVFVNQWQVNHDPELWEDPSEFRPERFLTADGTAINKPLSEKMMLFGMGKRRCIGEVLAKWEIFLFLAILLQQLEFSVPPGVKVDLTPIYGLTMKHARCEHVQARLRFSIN

[23] = Half life in mouse at 60 mg/kg, po; format: ADME, organism-based; conditions: in vivo
[24] = molecular target: T1, Peroxisome proliferator-activated receptor gamma (Homo sapiens); assay: Agonist activity at PPARgamma (unknown origin) at 1 uM relative to telmisartan
[25] = molecular target: T5, Type-1 angiotensin II receptor (Homo sapiens) (UniProt P30556); assay: Antagonist activity at type-1 angiotensin 2 receptor (unknown origin) at 20 nM by calcium mobilizing assay relative to fimasartan; format: functional
T5 sequence (whole entry): T2 sequence (P30556 whole entry)

[26] = Half life in rat at 10 mg/kg, po; format: ADME, organism-based; conditions: in vivo
Rattus norvegicus [27] = assay: Antihypertensive activity in angiotensin 2 induced hypertension rat model assessed as time required for 50% reduction in blood pressure at 3 mg/kg, po; format: functional
Rattus norvegicus [28] = assay: Antihypertensive activity in angiotensin 2 induced hypertension rat model at 3 mg/kg, po measured until 8 hrs post dose; format: functional, organism-based
[29] = AUClast in rat at 10 mg/kg, po; format: ADME, organism-based; set-up: dose 10 mg/kg, route oral, time 0 - last; conditions: in vivo
[30] = Cmax in mouse at 20 mg/kg, po; format: ADME, organism-based; set-up: dose 20 mg/kg, route oral; conditions: in vivo
[31] = Tmax in rat at 10 mg/kg, po; format: ADME, organism-based; conditions: in vivo
[32] = Cmax in rat at 10 mg/kg, po; format: ADME, organism-based; set-up: dose 10 mg/kg, route oral; conditions: in vivo
[33] = AUClast in mouse at 20 mg/kg, po; format: ADME, organism-based; set-up: dose 20 mg/kg, route oral, time 0 - last; conditions: in vivo

inhibition [25]: 0%
Activity [24]: 70%
SMILES: Cc1nc(CC(C)C)n(Cc2ccc(-c3ccccc3-c3noc(=O)[nH]3)cc2)c(=O)c1CC(=S)N(C)C

inhibition [25]: 107%
Activity [24]: 106%
SMILES: CCCCc1nc(C)c(CC(=S)N(C)C(C)C)c(=O)n1Cc1ccc(-c2ccccc2-c2noc(=O)[nH]2)cc1

IC50 [20]: 2.1 nM
Activity [24]: 122%
SMILES: CCCCc1nc(C)c(CC(=S)N(C)CC(C)C)c(=O)n1Cc1ccc(-c2ccccc2-c2noc(=O)[nH]2)cc1

half-life [26]: 3.6 h
AUC(0-t) [29]: 1930 ng·h/mL
Cmax [30]: 145 ng/mL
Tmax [31]: 7.8 min
IC50 [20]: 4.5 nM
Cmax [32]: 518 ng/mL
AUC(0-t) [33]: 254 ng·h/mL
Activity [24]: 0%
SMILES: CCCCc1nc(C)c(CC(=S)N(C)C)c(=O)n1Cc1ccc(-c2ccccc2-c2nnn[nH]2)cc1 [FIMASARTAN]
Time (Rattus norvegicus [27]): 22 h
Activity (Rattus norvegicus [28]): Active

inhibition [25]: 11%
SMILES: CCCCc1nc(C)c(CC(=S)N(C)C)c(=O)n1Cc1ccc(-c2ccccc2S(N)(=O)=O)cc1

The next lines start with the compound.

SMILES: CCCCc1nc(C(C)C)c(CC(=S)N2CCCC2)c(=O)n1Cc1ccc(-c2ccccc2-c2noc(=O)[nH]2)cc1
remaining at 0.5 h [1]: 62%
Cmax [2]: 2570 ng/mL
Cmax [3]: 1860 ng/mL
Time (Rattus norvegicus [4]): 16 h
Activity (Rattus norvegicus [5]): 50%
Ratio AUC [6]: 4
Tmax [7]: 0.5 h
Activity (Mus musculus [8]): Active
half-life [9]: 4.73 h
remaining at 0.5 h [10]: 24%
AUC(0-t) [11]: 13400 ng·h/mL
Activity [12]: 66%
activity at 10 µM (CYP2C19): 84%
IC50 [13]: 7000 nM
activity at 10 µM (CYP2C9): 36%
activity at 10 µM (CYP3A4): 62%
Activity (Mus musculus [14]): Non-Toxic
remaining at 0.5 h [15]: 13%
IC50 [16]: 10.5 nM
activity at 10 µM (CYP2D6): 99%
EC50 [17]: 3100 nM
Tmax [18]: 1.17 h
AUC(0-t) [19]: 2570 ng·h/mL
IC50 [20]: 2.2 nM
remaining at 0.5 h [21]: 11%
Activity (Rattus norvegicus [22]): Active
activity at 10 µM (CYP1A2): 97%
half-life [23]: 3.67 h
Activity [24]: 156%

SMILES: CCCCc1nc(C)c(CC(=S)N2Cc3ccccc3C2)c(=O)n1Cc1ccc(-c2ccccc2-c2noc(=O)[nH]2)cc1
IC50 [20]: 32 nM
Activity [24]: 100%

SMILES: CCCCc1nc(C2CC2)c(CC(=S)N2CCCC2)c(=O)n1Cc1ccc(-c2ccccc2-c2noc(=O)[nH]2)cc1
inhibition [25]: 63%
Activity [24]: 79%

SMILES: CCCCc1nc(C)c(CC(=S)N2[C@H](C)CC[C@H]2C)c(=O)n1Cc1ccc(-c2ccccc2-c2noc(=O)[nH]2)cc1
IC50 [20]: 1.8 nM
Activity [24]: 100%

SMILES: CCCCc1nc(C)c(CC(=S)N2CC[C@@H]3CCCC[C@H]32)c(=O)n1Cc1ccc(-c2ccccc2-c2noc(=O)[nH]2)cc1
IC50 [20]: 70 nM
Activity [24]: 121%
